Experimental findings from ChEMBL document CHEMBL1777747, “Design and synthesis of an ER-specific fluorescent probe based on carboxylesterase activity with quinone methide cleavage process” (Bioorg Med Chem Lett, 2011) are described below.

In series [1] the target is T1, Cocaine esterase (Homo sapiens, UniProt O00748).
T1 sequence (O00748 whole entry): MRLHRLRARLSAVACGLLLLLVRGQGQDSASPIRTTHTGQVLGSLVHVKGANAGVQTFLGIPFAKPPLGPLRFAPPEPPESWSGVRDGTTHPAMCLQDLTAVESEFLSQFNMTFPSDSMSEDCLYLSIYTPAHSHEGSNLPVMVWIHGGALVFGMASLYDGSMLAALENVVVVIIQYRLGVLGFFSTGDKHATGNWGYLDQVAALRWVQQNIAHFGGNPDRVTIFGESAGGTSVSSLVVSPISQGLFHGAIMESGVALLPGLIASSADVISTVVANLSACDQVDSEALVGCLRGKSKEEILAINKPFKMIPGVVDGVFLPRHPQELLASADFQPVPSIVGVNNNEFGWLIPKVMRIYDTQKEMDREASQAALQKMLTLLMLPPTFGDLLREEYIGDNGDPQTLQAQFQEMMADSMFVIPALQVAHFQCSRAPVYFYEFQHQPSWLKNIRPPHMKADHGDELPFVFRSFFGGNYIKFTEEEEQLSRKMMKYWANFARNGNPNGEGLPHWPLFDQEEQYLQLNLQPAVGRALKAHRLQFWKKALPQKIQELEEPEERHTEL
Briefly: Activity at carboxylesterase in human HT-1080 cells assessed as accumulation of resorufin in endoplasmic reticulum at 50 uM after 120 mins by phase contrast microscopic analysis. It is filed as ADME, cell-based. To be noted: ht-1080, 2 h.

Another series concerns COS-1. Briefly: Cytotoxicity against african green monkey COS1 cells by trypan blue method. To be noted: chlorocebus aethiops. Format: cell-based.
The next series deals with HT-1080. Briefly: Cytotoxicity against human HT1080 cells by trypan blue method. It is filed as cell-based.
The target of series [2] is T1, Cocaine esterase. Put plainly: Activity at carboxylesterase in human HT-1080 cells assessed as accumulation of resorufin in nucleus at 50 uM after 120 mins by phase contrast microscopic analysis. Format: ADME, cell-based. To be noted: ht-1080, 2 h.
Series [3] in a line: Activity at carboxylesterase in african green monkey COS1 cells assessed as accumulation of resorufin in endoplasmic reticulum at 50 uM after 120 mins by phase contrast microscopic analysis. It is filed as ADME, cell-based. The note with it: chlorocebus aethiops, cos-1, 2 h.
The species named for a further series is Sus scrofa. Briefly: Activity at porcine liver esterase assessed as amount of enzyme required to liberate 1 umol of resorufin/min from compound by fluorescence assay.
The nature of series [4]: Activity at carboxylesterase in african green monkey COS1 cells assessed as accumulation of resorufin in nucleus at 50 uM after 120 mins by phase contrast microscopic analysis. To be noted: chlorocebus aethiops, cos-1, 2 h. It is filed as ADME, cell-based.

Turning to `CCCC(=O)Oc1ccc(COc2ccc3nc4ccc(=O)cc-4oc3c2)cc1`, the Activity entry on Cocaine esterase [1] is “Active”; with COS-1 it was “Non-toxic”; in the series on HT-1080 it was “Non-toxic”; on Cocaine esterase [2] it was “Active”; in series [3], “Active”; in the series listed under Sus scrofa, 0.05 U/mg. In series [4], the outcome was Active.
